According to the supplement of paper PMC10307832:

How the values were obtained:
Experiment in all cases: relative viability (nuclei count vs DMSO), 5 days (fraction); higher = more cells survive
[1] = compound: CC1=CC(=CC=C1)NC2=NC(=CS2)C3=CC=NC=C3 + COc1cccc2cc(-c3nc([C@H]4CC[C@H](C(=O)O)CC4)n4ncnc(N)c34)[nH]c12 [OSI-027] (partner 0.5 µM)
Method in brief: (§1)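 Dosing by pin tool came one day after lung cancer cell lines were seeded in 1536-well plates, using either one drug or a fixed anchor-drug dose plus five library-drug doses (not always all listed) in √10 steps. After 5 days, nuclei were counted on 4× images. Relative viability is treated-well nuclei count divided by vehicle-well nuclei count, and values are medians of duplicate plates.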

[2] = compound: CC1=CC(=CC=C1)NC2=NC(=CS2)C3=CC=NC=C3 + CS(=O)(=O)N1CCN(Cc2cc3nc(-c4cccc5[nH]ncc45)nc(N4CCOCC4)c3s2)CC1 [Pictilisib] (partner 1 µM)
Method in brief: as §1

[3] = compound: CC1=CC(=CC=C1)NC2=NC(=CS2)C3=CC=NC=C3 + C[C@]1(O)C[C@@H](c2nc(-c3ccc4ccc(-c5ccccc5)nc4c3)c3c(N)nccn32)C1 [Linsitinib] (partner 1 µM)
Method in brief: as §1

[4] = compound: CC1=CC(=CC=C1)NC2=NC(=CS2)C3=CC=NC=C3 + Cc1cc(Nc2cc(N3CCN(C)CC3)nc(Sc3ccc(NC(=O)C4CC4)cc3)n2)n[nH]1 [Tozasertib] (partner 0.1 µM)
Method in brief: as §1

Cell Line	relative viability ([1]; first compound 0.08 µM)	relative viability ([1]; first compound 0.253 µM)	relative viability ([1]; first compound 0.8 µM)	relative viability ([1]; first compound 2.53 µM)	relative viability ([1]; first compound 8 µM)	relative viability ([2]; first compound 0.08 µM)	relative viability ([2]; first compound 0.253 µM)	relative viability ([2]; first compound 0.8 µM)	relative viability ([2]; first compound 2.53 µM)	relative viability ([2]; first compound 8 µM)	relative viability ([3]; first compound 0.08 µM)	relative viability ([3]; first compound 0.253 µM)	relative viability ([3]; first compound 0.8 µM)	relative viability ([3]; first compound 2.53 µM)	relative viability ([3]; first compound 8 µM)	relative viability ([4]; first compound 0.08 µM)	relative viability ([4]; first compound 0.253 µM)	relative viability ([4]; first compound 0.8 µM)	relative viability ([4]; first compound 2.53 µM)	relative viability ([4]; first compound 8 µM)
201T	0.501	0.438	0.522	0.494	0.536	0.547	0.537	0.598	0.565	0.602	1.03	1.05	1	0.817	0.852	1.04	0.94	0.961	0.804	0.692
A549	–	–	–	–	–	0.399	0.472	0.524	0.525	0.418	0.486	0.684	0.619	0.532	0.562	–	–	–	–	–
A-427	0.378	0.522	0.523	0.397	0.48	0.633	0.71	0.692	–	0.655	1.16	1.03	1.09	–	1.12	0.245	0.185	0.216	0.213	0.192
ABC-1	0.369	0.427	0.493	0.421	0.319	0.48	0.665	0.686	0.634	0.486	0.758	0.708	0.584	0.642	0.709	0.206	0.173	0.176	0.187	0.237
BEN	0.304	0.281	0.295	0.304	0.322	0.543	0.528	0.585	0.446	0.543	0.881	0.925	0.89	0.777	0.813	0.437	0.557	0.512	0.479	0.563
CAL-12T	0.45	0.546	0.542	0.469	0.528	0.286	–	0.557	0.261	0.388	0.766	0.801	0.747	0.847	0.847	0.381	0.277	0.32	0.25	0.185
COR-L23	0.587	0.66	0.555	0.64	0.503	0.539	0.57	0.451	0.714	0.661	0.821	0.89	0.62	0.892	0.843	0.186	0.189	0.155	0.172	0.099
COR-L 105	0.562	0.62	0.561	0.597	0.581	0.322	0.427	0.374	0.413	0.393	0.822	0.738	0.803	0.808	0.653	0.348	0.296	0.282	0.381	0.372
Calu-6	–	–	–	–	–	0.796	0.718	0.659	0.815	0.803	0.765	0.934	0.871	0.879	0.756	–	–	–	–	–
ChaGo-K-1	0.43	0.459	0.588	0.394	0.485	0.697	0.447	0.691	0.36	0.639	–	–	–	–	–	0.227	0.241	0.241	0.235	0.231
EBC-1	–	–	–	–	–	0.187	0.216	0.236	0.303	0.211	0.621	0.698	0.757	0.686	0.786	–	–	–	–	–
EKVX	0.538	0.699	0.619	0.628	0.636	0.374	0.391	0.344	0.32	0.346	0.914	0.778	0.882	0.882	0.705	0.45	0.395	0.36	0.384	0.294
EMC-BAC-2	0.356	0.383	0.385	0.375	0.378	0.449	0.496	0.53	0.48	0.554	0.712	0.817	0.781	0.802	0.718	0.261	0.286	0.287	0.285	0.323
EPLC-272H	0.243	0.274	0.258	0.27	0.281	0.265	–	0.292	–	0.344	1.08	–	1.05	–	1.19	0.294	0.206	0.248	0.313	0.51
H3255	0.527	0.615	0.726	0.494	0.701	0.535	0.552	0.542	0.526	0.408	0.95	0.951	0.966	0.795	0.956	0.627	0.624	0.614	0.599	0.6
HARA	0.33	0.496	0.328	0.48	0.473	0.343	0.354	0.367	0.21	0.374	0.919	0.877	0.735	0.712	0.789	0.112	0.101	0.104	0.104	0.133
HCC-15	0.533	0.607	0.661	0.595	0.561	0.644	0.665	0.684	0.692	0.701	0.872	0.859	0.828	0.791	0.754	0.413	0.443	0.304	0.385	0.298
HCC-44	0.321	0.374	0.558	0.432	0.348	0.423	0.429	0.462	0.485	0.486	0.59	0.497	0.486	0.539	0.662	0.743	0.782	0.857	0.676	0.795
HCC-78	–	0.371	0.392	0.308	0.435	0.204	0.198	0.261	0.219	0.22	0.398	0.506	0.542	0.423	0.63	–	0.402	0.365	0.405	0.391
HCC-366	0.723	0.744	0.959	0.833	0.461	0.146	0.11	0.132	0.157	0.121	0.454	0.593	0.501	0.563	0.399	0.126	0.0811	0.081	0.0599	0.0456

Cell Line	relative viability ([1]; first compound 0.08 µM)	relative viability ([1]; first compound 0.253 µM)	relative viability ([1]; first compound 0.8 µM)	relative viability ([1]; first compound 2.53 µM)	relative viability ([1]; first compound 8 µM)	relative viability ([2]; first compound 0.08 µM)	relative viability ([2]; first compound 0.253 µM)	relative viability ([2]; first compound 0.8 µM)	relative viability ([2]; first compound 2.53 µM)	relative viability ([2]; first compound 8 µM)	relative viability ([3]; first compound 0.08 µM)	relative viability ([3]; first compound 0.253 µM)	relative viability ([3]; first compound 0.8 µM)	relative viability ([3]; first compound 2.53 µM)	relative viability ([3]; first compound 8 µM)	relative viability ([4]; first compound 0.08 µM)	relative viability ([4]; first compound 0.253 µM)	relative viability ([4]; first compound 0.8 µM)	relative viability ([4]; first compound 2.53 µM)	relative viability ([4]; first compound 8 µM)
HCC-827	0.702	0.755	0.693	0.809	0.732	0.72	0.875	1.12	0.895	0.812	0.914	0.874	0.969	0.906	0.907	0.415	0.392	0.45	0.409	0.391
HOP-62	0.714	0.774	0.849	0.786	0.729	0.581	0.758	1.09	0.668	0.903	0.984	0.706	1.03	1.16	0.725	0.378	0.381	0.363	0.41	0.421
IA-LM	–	–	–	–	–	0.24	0.337	0.415	0.267	0.427	0.489	0.49	0.692	0.308	0.549	–	–	–	–	–
LC-2-ad	0.785	–	0.74	0.79	0.728	0.365	0.366	0.478	0.369	0.436	0.764	0.821	0.684	0.788	0.739	0.448	–	0.398	0.371	0.384
LCLC-97TM1	0.413	0.43	0.546	0.513	0.692	–	–	0.282	0.207	0.198	–	–	0.212	0.207	0.168	0.2	0.236	0.246	0.177	0.325
LCLC-103H	0.389	0.448	0.422	0.462	0.342	0.402	0.54	0.551	0.572	0.546	0.942	0.967	1.01	1.24	1.03	0.529	0.405	0.427	0.429	0.388
LK-2	0.165	0.181	0.237	0.185	0.214	0.572	0.569	0.853	–	0.674	0.581	0.778	0.729	0.413	0.427	–	0.175	0.173	–	0.184
LOU-NH91	0.552	0.642	0.651	0.648	0.711	0.482	0.382	0.464	0.44	0.468	0.82	0.925	0.903	0.979	0.769	0.607	0.709	0.566	0.681	0.58
LU99A	0.271	0.271	0.296	0.284	0.288	–	0.309	0.306	0.368	0.326	–	0.669	0.532	0.554	0.538	0.247	0.265	0.297	0.257	0.28
NCI-H522	0.71	0.649	0.737	0.735	0.775	–	–	–	–	–	–	–	–	–	–	0.539	0.54	0.59	0.504	0.643
NCI-H1299	–	–	–	–	–	0.779	0.839	0.779	0.88	0.899	0.93	0.985	0.936	0.928	0.928	–	–	–	–	–
NCI-H1563	0.723	0.775	0.842	0.779	0.697	0.675	0.616	0.712	0.617	0.592	1.11	1.12	1.19	1.29	1.18	–	–	–	–	–
NCI-H1623	0.444	0.359	0.391	0.405	0.384	–	–	–	–	–	–	–	–	–	–	0.393	0.403	0.377	0.385	0.363
NCI-H1648	0.259	0.277	0.276	0.258	0.255	–	–	–	–	–	–	–	–	–	–	0.387	0.315	0.46	0.384	0.294
NCI-H1650	0.619	0.508	0.625	0.472	0.227	0.536	0.517	0.621	0.419	0.208	–	–	–	–	–	0.531	0.543	0.461	0.363	0.269
NCI-H1703	–	–	–	–	–	0.229	0.243	0.238	0.282	0.262	0.733	0.632	0.64	0.732	0.555	–	–	–	–	–
NCI-H1792	0.541	–	0.613	0.443	0.401	0.155	0.198	0.219	0.162	0.24	0.322	0.33	0.389	0.377	0.398	–	–	–	–	–
NCI-H2170	0.733	0.646	0.583	0.537	0.651	0.296	0.287	0.301	0.271	0.276	–	–	–	–	–	0.729	0.71	0.663	0.793	0.628
NCI-H2342	0.623	0.588	0.65	0.5	0.607	–	–	–	–	–	–	–	–	–	–	0.533	0.423	0.573	0.476	0.505
SW 900	0.443	0.539	0.549	0.356	0.355	–	–	–	–	–	–	–	–	–	–	0.533	0.437	0.476	0.365	0.299
